The values below come from patent US4061637A, “Certain 4-aryl-5-(4-phenylpiperazino)alkyl-4-thiazolin-2-ones” (priority 1974, dated 1977).

Structures can show the parent of a compound that is named as a salt. Where two headings read alike, the source gives them in different places.

Series [1] in a line: Carrageen oedema in the conscious rat (anti-inflammatory activity). It counts as in vivo.
Description: Anti-inflammatory activity was evaluated by the method of Winter and colleagues (Proc. Soc. Exp. Biol., 111, 544, 1962) by endoperitoneally injecting the product under examination one hour before inducing oedema by injecting 0.05 ml. of a 1% suspension of carrageen (intradermally into the plantar portion of a rear paw).
The difference between the volume of the paw determined plethysmographically one hour before and three hours after the carrageen gives a quantitative estimate of the activity of the product tested. Where possible, the ED30 was calculated.
Series [2] is described as follows: Ulcers by constriction (stress) in the rat. It counts as in vivo. The note with it: 4 h, rat; for responders at 30 mg/kg / inhibition in vivo at 30 mg/kg: 30 mg/kg ip; for responders at 30 mg/kg / responders at 10 mg/kg: read-out: Anti-ulcer activity, ulcers by stress in the rat, Protected rats %; for inhibition in vivo at 30 mg/kg / inhibition in vivo at 10 mg/kg: read-out: Anti-ulcer activity, ulcers by stress in the rat, Reduction in ulcers %; for responders at 10 mg/kg / inhibition in vivo at 10 mg/kg: 10 mg/kg ip.
Description: The method described by Rossi and colleagues (Compt. Rend. Soc. Biol., 150, 2124, 1956) was followed in which the formation of gastric ulcers is induced by immobilising the animal, in a state of fast for 48 hours, in a net for a period of 4 hours.
The protection given by treatment with the drug under examination before the beginning of the constriction period is evaluated by counting both the ulcers and the number of subjects without ulcers.

The nature of series [3]: Acute toxicity under LD50 mouse. The note with it: in vivo, ip.
Series [4] relates to nor-adrenalin. Put plainly: Antagonism towards a lethal dose of nor-adrenalin in the rat (α-adrenolytic activity). The settings on record: for ED50: po, 1 h, read-out: α-adrenolytic activity lethal NA rat ED50. In kind it is in vivo. The procedure:
Antagonism towards a lethal dose of nor-adrenalin in the rat
The animals are treated with a dose of nor-adrenalin (0.5 mg/kg) which is 100% lethal in animals. The activity is calculated by the number of animals protected from death by prior administration of the drug under examination one hour before the agonist. Where possible the ED50 was calculated.

Series [5] can be described thus: Pinching the tail of the mouse (systemic analgesic activity). It counts as in vivo. The note with it: po, 0.5 h, mouse, 30 minutes; for inhibition in vivo at 200 mg/kg: 200 mg/kg os; for inhibition in vivo at 100 mg/kg: 100 mg/kg os.
Description: To evaluate the analgesic activity, the method described by Bianchi and colleagues (Brit. J. Pharmacol., 9, 280, 1954) was followed which consists of applying an arterial pincer to the base of the tail in animals treated orally 30 minutes previously with the drug under examination, observing that the control animals react to the pain by squealing.
Series [6] in a line: Cataleptic activity in the mouse. It counts as in vivo. The settings on record: po; mouse, os; read-out: Cataleptic activity mouse ED50.
Series [7] in a line: Inhibition of spontaneous motility in the mouse. In kind it is in vivo. The note with it: mouse; for ED50: po, 0.5 h, os, 30 minutes after treatment, read-out: Spontaneous motility inhibition mouse ED50.
Description: This is evaluated by an actophotometric method, which consists of placing the mice, 30 minutes after oral treatment with the drug or the carrier, in a cage provided with a photoelectric cell counter and counting the number of times the photoelectric cell is passed during a 10 minute stay.
Series [8] in a line: Antagonism towards electric shock convulsions in the mouse. It counts as in vivo. The note with it: po, 0.5 h, mouse, 35 volt, read-out: Anti-convulsion activity, electric shock, mouse, % att.; for inhibition in vivo at 200 mg/kg: 200 mg/kg os; for inhibition in vivo at 100 mg/kg: 100 mg/kg os.
Description: This is evaluated by observing the protection given by pretreatment with the drug (30 minutes) against tonic convulsions obtained by applying a 35 volt current to the eyeballs.

The term LD50 denotes the dose at which mortality reaches 50%. The low end stands for greater toxicity, the high end for lower toxicity. One may read the ED50 as the dose that gives a 50% effect, or the effect in half of the subjects.

Take `O=c1[nH]c(-c2ccc(F)cc2)c(CCN2CCN(c3ccccc3)CC2)s1` [LR 599, 4-p-fluorophenyl-5-β-(N'-phenylpiperazino)ethyl-4-thiazolin-2-one]: the “Anti-inflammatory activity carrageenin oedema rat, percentage activity (ED30 lacking)” value in series [1] (200 mg/kg ip) was 20%. In addition, the responders at 30 mg/kg in series [2] was 20%. In series [2], the inhibition in vivo at 30 mg/kg turned out to be 48%. This molecule also came in with an LD50 in series [3] above 1000 mg/kg. Also, the ED50 in series [4] (Rattus norvegicus) turned out to be 45 mg/kg; in series [6] it was 200 mg/kg; in series [7], 69.2 mg/kg. The inhibition in vivo at 200 mg/kg in series [5] worked out at 30%; in series [8], 0%.
Turning to `CN(CCc1ccccc1)CCc1sc(=O)[nH]c1-c1ccc(Cl)cc1.O=C(O)/C=C\C(=O)O` [LR 628, 4-p-chlorophenyl-5-β-(N-methylphenylethylamino)ethyl-4-thiazolin-2-one maleate], in series [1] (1 h, ip, one hour before carrageen, read-out: Anti-inflammatory activity carrageenin oedema rat ED30), the ED30 worked out at 35 mg/kg. The responders at 30 mg/kg in series [2] amounted to 0%. For the same molecule, in series [2], the inhibition in vivo at 30 mg/kg came to 0%. The LD50 in series [3] worked out at 400 mg/kg. For the same molecule, the ED50 in series [4] (rat, os, one hour before nor-adrenalin 0.5 mg/kg) turned out to be 8 mg/kg; in series [7], 100 mg/kg. The inhibition in vivo at 100 mg/kg in series [5] and in series [8] was 0% each time.
Turning to `O=c1[nH]c(-c2ccc(F)cc2)c(CCN2CCC3(CC2)OCCCCO3)s1` [LR 648, 4-p-fluorophenyl-5-β-[7,12-dioxa-3-azaspiro[5,6]-dodec-3-yl]-ethyl-4-thiazolin-2-one hydrochloride], in series [2], the responders at 10 mg/kg was determined as 10% and the inhibition in vivo at 10 mg/kg was determined as 32%. The LD50 in series [3] was 125 mg/kg. For the same molecule, the “α-adrenolytic activity lethal NA rat, percentage activity (ED50 lacking)” value in series [4] (rat, 7 mg/kg os) was 0%. In series [5] (26 mg/kg os), the inhibition in vivo at 26 mg/kg amounted to 0%. Also, in series [7] (26 mg/kg os), the “Spontaneous motility inhibition mouse, percentage activity (ED50 lacking)” value is on record as 20%. Further, the inhibition in vivo at 26 mg/kg in series [8] (26 mg/kg os) came out at 20%.
As for `CC(=O)n1c(-c2ccc(F)cc2)c(CCN2CCN(c3ccccc3)CC2)sc1=O` [LR 653, 3-acetyl-4-p-fluorophenyl-5-β-(N'-phenylpiperazino)-ethyl-4-thiazolin-2-one], the “Anti-inflammatory activity carrageenin oedema rat, percentage activity (ED30 lacking)” value in series [1] (100 mg/kg ip) was found to be 25.4%. The LD50 in series [3] was 420 mg/kg. Moreover, the ED50 in series [4] (Rattus norvegicus) was 12.8 mg/kg; in series [6], 80 mg/kg; in series [7], 11.6 mg/kg. For the same molecule, the inhibition in vivo at 100 mg/kg in series [5] and in series [8] was 20% each time.
For `O=c1[nH]c(-c2ccc(Cl)cc2)c(CN2CCCCC2)s1` [LR 659, 4-p-chlorophenyl-5-piperidinomethyl-4-thiazolin-2-one], in series [2], the responders at 10 mg/kg amounted to 50% and the inhibition in vivo at 10 mg/kg stood at 50%. The molecule also returned an LD50 in series [3] above 1000 mg/kg. In addition, in series [5], the inhibition in vivo at 200 mg/kg came out at 0%. Moreover, the inhibition in vivo at 200 mg/kg in series [8] amounted to 30%.
As to `O=c1[nH]c(-c2ccc(Cl)cc2)c(CN2CCN(c3ccccc3)CC2)s1` [LR 660, 4-p-chlorophenyl-5-(N'-phenylpiperazino)methyl-4-thiazolin-2-one], in series [2], the responders at 10 mg/kg was determined as 50% and the inhibition in vivo at 10 mg/kg is 50%. In series [3], this molecule showed an LD50 above 1000 mg/kg. For the same molecule, the ED50 in series [7] turned out to be 100 mg/kg. The inhibition in vivo at 200 mg/kg in series [8] was determined as 20%.
